Laboratory results taken from patent US8497382B2, “Carboxylic acid derivative containing thiazole ring and pharmaceutical use thereof” (Mitsubishi Tanabe Pharma Corporation, priority 2008, dated 2013).

Assays:
[1] = system: high cholesterol diet-treated rat; experiment: Influence on serum lipid of high cholesterol diet-treated rat; assay type: in vivo, SD rats; details: once a day for 5 days, high cholesterol diet rats
Description: 2) Influence on Serum Lipid of High Cholesterol Diet-Treated Rat
8-week-old male SD rats (manufactured by SEAC Yoshitomi, Ltd.) were raised on a standard diet CE-2 (manufactured by Japan Clea, Inc.) added with 1% cholesterol, 2% olive oil and 0.2% cholic acid, from one week before test compound administration to the last day of the administration. A test compound and a control compound (GW-9578) were dissolved or suspended in 1% ethanol and 0.05% Tween80 (final concentration), and 0.5% hydroxypropylmethyl cellulose (HPMC) was added to adjust to a given concentration. The prepared solution was orally administered once a day for 5 days. After administration for 5 days, blood samples were collected from the jugular vein under non-fasting condition and blood lipid was measured by an enzyme method. The lowering rate was calculated by determining the rate of a value obtained by subtracting the average blood TG (or average blood TC) of a drug administration group from the average blood triglyceride (TG) (or average blood total cholesterol (TC)) of a vehicle administration group, to the average blood TG (or average blood TC) of the vehicle administration group.

[2] = biological target: T1, Human Peroxisome Proliferator-Activated Receptor (PPAR)α (Homo sapiens, UniProt Q07869); experiment: Transactivation test for human PPARα (GAL4-hPPARαLBD luciferase reporter in CV-1 cells); assay type: cell-based; details: for EC50: CV-1 cells, GAL4-hPPARαLBD, luciferase activity after 24 hr, read-out: transactivation action (EC50, nmol/l)
T1 construct: expressed in transfected cells
T1 sequence (Q07869 239-466 limits assumed): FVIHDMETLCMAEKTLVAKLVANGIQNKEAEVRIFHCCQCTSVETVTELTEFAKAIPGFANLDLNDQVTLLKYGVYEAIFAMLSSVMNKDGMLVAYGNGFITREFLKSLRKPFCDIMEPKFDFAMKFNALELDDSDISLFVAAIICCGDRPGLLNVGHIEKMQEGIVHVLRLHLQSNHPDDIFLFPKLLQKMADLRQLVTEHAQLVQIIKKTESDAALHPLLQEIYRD
Excerpt: Transactivation Test for Human Peroxisome Proliferator-Activated Receptor (PPAR)α
CV-1 cells (CCL-70, manufactured by Dainippon Pharma Co., Ltd.) cultured in Dulbecco's Modified Eagle Medium (DMEM) containing 10% fetal bovine serum (FBS) were transfected, using Lipofectamine 2000 (manufactured by Invitrogen), with pBIND vector (manufactured by Promega) that expresses a fusion protein of a DNA binding region of a yeast transcription factor (GAL4) and a human PPARα ligand binding region (GAL4-hPPARαLBD, manufactured based on Diabetes 47: 1841-1847, 1998), and an internal standard renilla luciferase, and GAL4 responsive TK vector that expresses reporter firefly luciferase (manufactured by Promega). 24 hr later, the medium was changed to a serum free medium containing a test compound, and the luciferase activity after 24 hr was measured.

[3] = system: normal rats; experiment: Blood triglyceride (TG)-lowering action in normal rats; assay type: in vivo; details: normal male SD rats; for TG lowering rate: p.o., once a day for 4 days, non-fasting; for TG-lowering action: 0.01 mg/kg
Description: 1) Blood Triglyceride (TG)-Lowering Action in Normal Rats
7 to 9-week-old male SD rats (manufactured by SEAC Yoshitomi, Ltd.) were used for the test. A test compound and a control compound (GW-9578: J. Med. Chem. 1999, 42, 3785-3788) were dissolved or suspended in 1% ethanol, 0.05% Tween80 (final concentration), and 0.5% hydroxypropylmethyl cellulose (HPMC) was added to adjust to a given concentration. The prepared solution was orally administered once a day for 4 days. After administration for 4 days, blood samples were collected from the jugular vein under non-fasting condition and blood TG was measured by an enzyme method. The lowering rate was calculated by determining the rate of a value obtained by subtracting the average blood TG of a drug administration group from the average blood TG of a vehicle administration group, to the average blood TG of the vehicle administration group.

[4] = Metabolizing isoform identification test (oxidative metabolism by microsome), human liver microsome; assay type: in vitro ADME; details: for oxidative metabolism by human liver microsome: 14C-labeled test compound 2 μmol/L, 0.5 mg protein/mL, 37° C., 20 min
Description: (§1) Metabolizing Isoform Identification Test (Oxidative Metabolism by Microsome)
(§2) As a reaction mixture for the CYP isoform identification, a reaction mixture containing microsome [^14C-labeled test compound (2 μmol/L), microsome (human liver microsome at 0.5 mg protein/mL or microsome expressing CYP at 50 pmol CYP/mL (Control microsome, CYP1A2, CYP2A6, CYP2B6, CYP2C8, CYP2C9, CYP2C19, CYP2D6, CYP2E1 or CYP3A4)), EDTA (0.05 mmol/L) and Na—K phosphate buffer (pH 7.4, 0.1 mol/L)] was prepared and, after preincubation at 37° C. for 5 min, a solution of the NADPH generating system [β-NADP+ (0.5 mmol/L), glucose-6-phosphate (G-6-P) (5.0 mmol/L), magnesium chloride (5.0 mmol/L) and G-6-P DH (1.0 unit/mL)] was added to start the reaction. For CYP expressing microsomes for CYP2A6 and CYP2C9, Tris-HCl buffer (pH 7.4, 0.1 mol/L) was used instead of Na—K phosphate buffer (pH 7.4, 0.1 mol/L).
(§3) These reaction mixtures were incubated at 37° C. for 20 min, and a 3-fold amount of ethanol was added to the reaction mixtures to terminate the reaction. To the reaction mixture was added a predetermined amount of an unlabeled metabolite mixed solution, and the mixture was stirred (about 5 min), centrifuged (4° C., 3000 rpm, 10 min) and the supernatant was collected. To the residue was added a 3-fold amount of ethanol relative to the reaction mixture, and the mixture was stirred (about 5 min), and centrifuged (4° C., 3000 rpm, 10 min). The supernatant was collected and combined with the supernatant collected earlier, and the solvent was evaporated under a nitrogen stream at about 40° C. To the residue was added a predetermined amount of HPLC mobile phase or suitable solvent, and the mixture was stirred and used as an HPLC sample. The sample was injected into HPLC and a radiochromatogram was obtained. From the obtained radiochromatogram, the metabolism activity and metabolite generating activity of the ^14C-labeled test compound was calculated.

[5] = biological target: CYP3A4 (Homo sapiens, UniProt P08684); experiment: Metabolizing isoform identification test, microsome expressing CYP3A4; assay type: in vitro ADME; details: microsome expressing CYP at 50 pmol CYP/mL, 2 μmol/L, 37° C., 20 min
Description: as §1, §2
(§4) These reaction mixtures were incubated at 37° C. for 20 min, and a 3-fold amount of ethanol was added to the reaction mixtures to terminate the reaction. To the reaction mixture was added a predetermined amount of an unlabeled metabolite mixed solution, and the mixture was stirred (about 5 min), centrifuged (4° C., 3000 rpm, 10 min) and the supernatant was collected. […] From the obtained radiochromatogram, the metabolism activity and metabolite generating activity of the ^14C-labeled test compound was calculated.

[6] = biological target: T2, CYP2C8 (Homo sapiens, UniProt P10632); experiment: Metabolizing isoform identification test, microsome expressing CYP2C8; assay type: in vitro ADME; details: microsome expressing CYP at 50 pmol CYP/mL, 2 μmol/L, 37° C., 20 min
T2 sequence (P10632 1-490): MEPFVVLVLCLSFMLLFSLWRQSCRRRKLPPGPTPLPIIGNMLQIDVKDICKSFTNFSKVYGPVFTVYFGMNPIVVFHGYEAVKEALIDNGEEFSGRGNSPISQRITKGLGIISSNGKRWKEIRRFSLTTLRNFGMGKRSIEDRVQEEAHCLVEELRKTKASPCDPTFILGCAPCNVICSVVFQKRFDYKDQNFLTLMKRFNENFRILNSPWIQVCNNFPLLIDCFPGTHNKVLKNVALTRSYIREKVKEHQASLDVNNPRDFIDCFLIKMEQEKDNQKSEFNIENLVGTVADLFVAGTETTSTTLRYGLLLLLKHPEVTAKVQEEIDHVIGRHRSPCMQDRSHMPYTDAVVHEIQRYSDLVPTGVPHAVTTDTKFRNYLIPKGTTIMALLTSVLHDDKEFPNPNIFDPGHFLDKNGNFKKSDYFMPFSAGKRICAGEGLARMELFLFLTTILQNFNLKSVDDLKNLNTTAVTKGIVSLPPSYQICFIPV
Description: as §1, §2, §4

[7] = biological target: T3, CYP2C9 (Homo sapiens, UniProt P11712); experiment: Investigation using an inhibitor (Sulfaphenazole) in human liver microsome; assay type: in vitro ADME; set-up: human liver microsome (0.5 mg protein/mL); from tissue; host or cells: human liver microsome; details: Sulfaphenazole 10 μmol/L, test compound 0.2 and 2 μmol/L
Description: On the other hand, as a reaction mixture for studying inhibitors, [^14C-labeled test compound (0.2 μmol/L and 2 μmol/L), inhibitor solution (Sulfaphenazole) (10 μmol/L), human liver microsome (0.5 mg protein/mL), EDTA (0.05 mmol/L) and Na—K phosphate buffer (pH 7.4, 0.1 mol/L)] was prepared and, after preincubation at 37° C. for 5 min, a solution of the NADPH generating system was added thereto to start the reaction.
as §3, with “To the residue was added a predetermined amount of HPLC mobile phase or suitable solvent, and the mixture was stirred and used as an HPLC sample. The sample was injected into HPLC and a radiochromatogram was obtained.” left out

[8] = biological target: CYP2C19 (Homo sapiens, UniProt P33261); experiment: Metabolizing isoform identification test, microsome expressing CYP2C19; assay type: in vitro ADME; details: microsome expressing CYP at 50 pmol CYP/mL, 2 μmol/L, 37° C., 20 min
Description: as §1, §2, §4

[9] = biological target: T3, CYP2C9; experiment: Metabolizing isoform identification test, microsome expressing CYP2C9; assay type: in vitro ADME; details: microsome expressing CYP at 50 pmol CYP/mL, 2 μmol/L, 37° C., 20 min
Description: as §1, §2, §4

T3 sequence (P11712 whole entry): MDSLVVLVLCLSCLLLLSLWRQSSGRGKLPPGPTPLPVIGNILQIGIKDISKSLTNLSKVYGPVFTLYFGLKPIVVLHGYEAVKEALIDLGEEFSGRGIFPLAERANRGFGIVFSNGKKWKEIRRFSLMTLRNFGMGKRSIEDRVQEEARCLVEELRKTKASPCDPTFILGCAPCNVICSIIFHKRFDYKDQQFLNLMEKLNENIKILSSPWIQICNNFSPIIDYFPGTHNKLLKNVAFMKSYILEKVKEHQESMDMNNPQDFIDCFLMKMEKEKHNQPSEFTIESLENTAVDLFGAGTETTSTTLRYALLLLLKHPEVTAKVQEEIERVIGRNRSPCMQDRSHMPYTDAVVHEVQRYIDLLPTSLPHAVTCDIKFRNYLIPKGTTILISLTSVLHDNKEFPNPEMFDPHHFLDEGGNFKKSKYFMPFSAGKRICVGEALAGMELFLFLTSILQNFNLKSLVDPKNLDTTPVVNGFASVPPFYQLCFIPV
Chain of CYP2C19 (P33261 whole entry, canonical isoform): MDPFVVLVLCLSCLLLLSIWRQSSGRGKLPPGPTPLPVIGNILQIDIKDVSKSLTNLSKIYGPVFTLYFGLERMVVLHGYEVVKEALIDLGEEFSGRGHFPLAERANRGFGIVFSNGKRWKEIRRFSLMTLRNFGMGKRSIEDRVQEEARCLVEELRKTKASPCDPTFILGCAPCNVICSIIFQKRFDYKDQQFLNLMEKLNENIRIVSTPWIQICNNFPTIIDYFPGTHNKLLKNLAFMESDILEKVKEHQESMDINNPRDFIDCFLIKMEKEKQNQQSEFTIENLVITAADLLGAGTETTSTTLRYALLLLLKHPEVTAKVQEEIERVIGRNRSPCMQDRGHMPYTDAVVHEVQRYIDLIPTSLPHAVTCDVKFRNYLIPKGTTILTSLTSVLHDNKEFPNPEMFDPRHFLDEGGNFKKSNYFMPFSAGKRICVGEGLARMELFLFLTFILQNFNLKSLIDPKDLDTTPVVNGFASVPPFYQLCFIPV
Chain of CYP3A4 (P08684 whole entry, canonical isoform): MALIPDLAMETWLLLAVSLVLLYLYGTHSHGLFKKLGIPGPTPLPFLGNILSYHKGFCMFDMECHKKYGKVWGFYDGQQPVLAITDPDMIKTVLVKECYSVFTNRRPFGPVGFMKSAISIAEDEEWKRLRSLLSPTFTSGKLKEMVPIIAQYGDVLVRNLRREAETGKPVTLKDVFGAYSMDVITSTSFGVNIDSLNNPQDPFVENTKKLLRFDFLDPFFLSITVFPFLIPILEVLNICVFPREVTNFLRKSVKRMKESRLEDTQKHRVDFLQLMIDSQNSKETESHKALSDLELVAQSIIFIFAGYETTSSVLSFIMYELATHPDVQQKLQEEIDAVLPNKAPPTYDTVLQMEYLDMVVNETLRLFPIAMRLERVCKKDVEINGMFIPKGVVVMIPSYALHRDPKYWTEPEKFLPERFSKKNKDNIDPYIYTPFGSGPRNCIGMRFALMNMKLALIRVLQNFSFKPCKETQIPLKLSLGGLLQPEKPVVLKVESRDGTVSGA

CC(C)(Sc1nc(C(O)COc2ccc(-c3ccc(F)cc3)cc2)cs1)C(=O)O (stereo not shown) [Example 2, 2-[(4-{2-[(4′-fluorobiphenyl-4-yl)oxy]-1-hydroxyethyl}-1,3-thiazol-2-yl)thio]-2-methylpropionic acid]
TG lowering rate (%, 0.3 mg/kg, p.o.) TG ([1]; first column): 38%
TG lowering rate (%, 0.3 mg/kg, p.o.) TG ([1]; second column): 34%
EC50 [2]: 8.4 nmol/L
TG lowering rate ([3]; 0.3 mg/kg): 56%

CC(C)(Sc1nc(C(=O)COc2ccc(-c3ccc(F)cc3)cc2)cs1)C(=O)O [Example 3, 2-[(4-{[(4′-fluorobiphenyl-4-yl)oxy]acetyl}-1,3-thiazol-2-yl)thio]-2-methylpropionic acid]
EC50 [2]: 4.7 nmol/L

CC(C)(Sc1nc([C@H](O)COc2ccc(-c3ccc(F)cc3)cc2)cs1)C(=O)O [Example 12, 2-[(4-{(1S)-2-[(4′-fluorobiphenyl-4-yl)oxy]-1-hydroxyethyl}-1,3-thiazol-2-yl)thio]-2-methylpropionic acid]
EC50 [2]: 3.1 nmol/L
transcription activation activity relative to compound A (times stronger) ([2]; compared with compound A (10.41 nmol/l)): ≥ 3 times
oxidative metabolism by human liver microsome [4]: could not be confirmed
involvement in the metabolism by CYP ([4]; summary statement in description): not involved in the metabolism by CYP
TG-lowering action [3]: 15.1%
TG lowering rate ([3]; 0.1 mg/kg): 52%

CCCCCCCN(CCc1ccc(SC(C)(C)C(=O)O)cc1)C(=O)Nc1ccc(F)cc1F [GW-9578]
TG lowering rate (%, 0.3 mg/kg, p.o.) TG ([1]; first column): 30-50%
TG lowering rate (%, 0.3 mg/kg, p.o.) TG ([1]; second column): 30-50%
TG lowering rate ([3]; 0.3 mg/kg): 50-60%

CC(C)(Sc1nc(CCOc2ccc(-c3ccc(F)cc3)cc2)cs1)C(=O)O [compound A, 2-[(4-{2-[(4′-fluorobiphenyl-4-yl)oxy]ethyl}-1,3-thiazol-2-yl)thio]-2-methylpropionic acid]
metabolism by CYP3A4 [5]: also metabolized
metabolism by CYP2C8 [6]: also metabolized
enzyme mainly involved in the metabolism (investigation using the inhibitor) [7]: CYP2C9
EC50 [2]: 10.4 nmol/L
oxidative metabolism by human liver microsome [4]: observed
metabolism by CYP2C19 [8]: also metabolized
metabolism by CYP2C9 [9]: mainly metabolized by CYP2C9
TG-lowering action [3]: 0.7%
